The structures appear in SMILES notation. Several values for one entry are separate records, joined by “and”; a condition that tells them apart may be missing. Equal entries are not always repeated.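 Five concentrations, 48 hours, 96-well plates. Here, GI50 denotes the concentration required for 50% inhibition of growth. TGI is the concentration that stops growth completely.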

In this experiment the test system is MDA-MB-468 breast. The experiment in a line: NCI tumour cell line growth inhibition, 48 h.

For the compound `COC(=O)[C@]12CC[C@@H](C)[C@H](C)[C@@H]1C1=CC[C@@H]3[C@@]4(C)CC(=O)[C@H](OC(=O)c5ccco5)[C@@]5(C)COC(=C45)C[C@@]3(C)[C@]1(C)CC2`, the GI50 is 0.42 µM and the TGI was > 100 µM.

Turning to `COc1ccc(-c2c(N)n[nH]c2-c2cc(OC)c(OC)c(OC)c2)cc1`, the GI50 is 0.0946 µM and the TGI worked out at 2.87 µM. Consider `CO[C@H](C(=O)O)[C@@H]1Cc2cc3cc(OC4CC(OC5CC(O)C(O)C(C)O5)C(O)C(C)O4)c(C)c(O)c3c(O)c2C(=O)[C@H]1OC1CC(OC2CC(OC3CC(C)(O)C(O)C(C)O3)C(O)C(C)O2)C(O)C(C)O1` (stereo not given in full), for which the GI50 was 0.159 µM and the TGI turned out to be 0.885 µM. For `O=[As]c1ccc(C(=O)c2ccc(Oc3ccccc3)cc2)cc1` (stereo not given) the same measures were 0.0266 µM and 0.101 µM. For `CN(C)CCNc1nc2ccccc2c2c(=O)c3ccccc3sc12` the same measures were 1.45 µM and 3.31 µM.

As for `CCCn1c(N)c(C(=O)CNc2ccc(I)cc2)c(=O)[nH]c1=O`, the TGI was > 100 µM. As for `CCOc1cc(C(C)(C)C)ccc1C1=N[C@@](C)(c2ccc(Cl)cc2)[C@@](C)(c2ccc(Cl)cc2)N1C(=O)N1CCN(CCS(C)(=O)=O)CC1`, the GI50 was 2.1 µM and the TGI worked out at 6.34 µM. For `Oc1c(CN2CCOCC2)cc(COCc2ccccc2)c2cccnc12` the same measures were 2.39 µM and 7.19 µM.

Turning to `CCCCOc1ccc(/C=N/Nc2cc(C)nc3ccc(Cl)cc23)cc1`, the GI50 was 1.53 µM and the TGI was 2.97 µM. The like results for `CC(=O)N1CCN(CCOc2ccc(C3CCN(C4=Nn5c(nnc5C(F)(F)F)CC4)CC3)cc2)CC1` were, in that order, 3.72 µM and 61.1 µM. For the compound `O=C(CCl)Nc1cc(O)c2c(c1)C(=O)c1cccc(O)c1C2=O`, the GI50 is 1.04 µM and the TGI worked out at 2.86 µM. For `OC(COc1cccc2ccccc12)CN1CCN(c2ccccc2Cl)CC1` (stereo not given) the same measures were 15.3 µM and 30.1 µM. Turning to `O=C(Nc1ccc(I)cc1F)c1cc(I)ccc1O`, the GI50 is 0.808 µM and the TGI is 2.46 µM.

As for `O=C(O)C(=O)CBr`, the GI50 was > 48.3 µM and 16.9 µM; the TGI is > 72.4 µM and 33.3 µM. As for `C=CCCC(=O)N1C=CC(=O)[C@H](O)[C@@H]1/C=C/c1ccccc1`, the GI50 is 5.12 µM and the TGI came to 22.3 µM.

Turning to `COc1cccc(C2=C(c3cn(C)c4cccc(OC)c34)C(=O)NC2=O)c1`, the GI50 is 6.88 µM and the TGI is > 25 µM.

Turning to `CCCCCCNC(=O)Oc1ccc(/C(=C(\C)c2ccccc2)c2ccc(OCCN(CC)CC)cc2)cc1`, the GI50 was 2.92 µM and the TGI came out at 9.72 µM. For `COc1ccc2[nH]c(O)c(/C=c3/cc4c(c(-c5ccc(F)cc5)n3)=Nc3ccccc3-4)c2c1` the same measures were 2.22 µM and 5.47 µM.

Take `CCCCCc1c(C)[nH]c(/C=C2\N=C(c3ccc[nH]3)C=C2OCc2ccccc2)c1C`: the GI50 is 0.0969 µM and 0.0235 µM; the TGI is 0.764 µM and 0.268 µM. Take `CC[C@H](NC(=O)[C@H](CS(=O)(=O)CC1CC1)N[C@@H](c1ccc(F)cc1)C(F)(F)F)C(=O)C(=O)NC1CC1`: the GI50 is 49.9 µM and the TGI is > 100 µM. The like results for `Cn1ncc(-c2ccc3c(=O)[nH]nc(CN)c3c2)c1-c1c(F)cc2ccccc2c1C#N` were, in that order, 7.02 µM and 21.1 µM. For `COc1cccc(-c2cc(=O)c3cc(Cl)cnc3[nH]2)c1` the same measures were 0.886 µM and > 100 µM. As to `O=[N+]([O-])c1cc(F)c2cccnc2c1O`, the GI50 was 14.7 µM and the TGI worked out at 47.2 µM. For `Oc1ccc(Cl)cc1-c1cc(-c2ccc(F)cc2)n[nH]1` the same measures were 1.35 µM and 5.35 µM. For `CCOC(=O)c1ccccc1-c1c2ccc(=[N+](C)C)cc-2oc2cc(N(C)C)ccc12` the same measures were 0.0469 µM and 0.41 µM. For `Cc1c(C(=O)O[C@H]2[C@@H]3[C@H](C)CC[C@H]3[C@]3(C)O[C@@]2(C2CCCCC2)C[C@H]3OC(=O)CO)ccc2ccccc12` the same measures were 8.12 µM and 16.1 µM. For the compound `CC(=O)C1(O)Cc2c(O)c3c(c(O)c2C(OC2CC(N)C(O)C(C)O2)C1)C(=O)c1ccccc1C3=O` (stereo not given), the GI50 was 0.0119 µM and the TGI came to 0.0398 µM. For `Nc1c(C(=O)Nc2cccc(Br)c2)sc2nc3c(cc12)C(O)CCC3` (stereo not given) the same measures were 0.237 µM and 31.7 µM. The like results for `ClCC#CCSc1ncnc2c1ncn2CC#CCCl` were, in that order, 1.43 µM and 3.2 µM.

On to `CC(C)(C)Nc1nc2c(OCCc3ccccc3)cccn2c1-c1cccc(F)c1`, for which the GI50 was 3.51 µM and the TGI turned out to be 22.9 µM.

In the case of `c1ccc2nc(OCCN3CC3)ccc2c1`, the GI50 is 2.77 µM and the TGI was 7.87 µM. For `CC1(C)[C@@H](OC(N)=O)C=C[C@]2(C=O)[C@H]3CC[C@]4(C)[C@@H](c5ccc(=O)oc5)[C@@H](Cl)C[C@]4(O)C3=CC[C@@H]12` the same measures were 0.00613 µM and 0.0161 µM. Turning to `COc1cc([C@@H]2c3cc4c(cc3C(OC3O[C@@H]5COC(C)O[C@H]5[C@H](O)[C@H]3O)C3COC(=O)[C@@H]32)OCO4)cc(OC)c1O` (stereo not given in full), the GI50 is 1.1 µM and the TGI was found to be 4.5 µM. The like results for `COc1cc(-c2nn(-c3ccc(NC(=O)c4cc(Cl)cc(Cl)c4)cc3)cc2-c2ccncc2)ccc1Cl` were, in that order, > 100 µM and > 100 µM. Consider `CC(C)(C)C(=O)OCc1nc2cc3c(cc2c(=O)[nH]1)CCC3=O`, for which the GI50 was > 100 µM and the TGI was > 100 µM.

Turning to `C#Cc1cc2c(N)c(C(=O)c3cc(OC)c(OC)c(OC)c3)[nH]c2cc1OC`, the GI50 was 0.497 µM and the TGI is 43.2 µM.

Take `CN(C)CCCOc1c2ccc(Cl)cc2nc2c1oc1ccc(Cl)cc12`: the GI50 is 2.12 µM and the TGI is 7.03 µM. Take `CN1CCN(CCOc2ccc(-c3cnc4c(-c5ccc(F)cc5)cnn4c3)cc2)CC1`: the GI50 was 1.54 µM and the TGI was determined as 3.19 µM.

Values taken from PubChem BioAssay (NCI).
